Experiment: gradient 5% acetonitrile 3 min, to 50% in 2 min, to 85% in 15 min, held 3 min, 100 µL/min
Settings: column: Zorbax Extend-C18 2.1 x 50 mm; eluents: water / acetonitrile, 0.1% formic acid
Summary of the method: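 The system's dead and dwell volumes were 40 μL and 900 μL, with a Zorbax Extend-C18 column (2.1 × 50 mm, 1.8 μm) run at 100 μL/min in water and acetonitrile containing 0.1% formic acid each. Pure standards were analyzed in mixtures of ~100 molecules by HPLC–quadrupole time-of-flight mass spectrometry in positive and negative ionization mode. Retention time was assigned from computationally picked, manually inspected adduct peaks.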

Q: With Cc1ccc2cccc(Oc3ncnc(N)c3[N+](=O)[O-])c2n1 as the molecule, how does the RP-LC retention time read?
A: 623 s

Q: With CCc1cc(=O)n(CC(=O)Nc2ccc(Cl)cc2)c(N)n1 as the molecule, how does the RP-LC retention time read?
A: 618 s

Q: Which RP-LC retention time does the source give for CN(CC(=O)NC1CCCCC1)S(=O)(=O)c1c[nH]c(C(=O)N2CCCC2)c1 here?
A: 722 s

Q: Which RP-LC retention time does the source give for Fc1cc(F)c2nc(NCc3ccco3)sc2c1 here?
A: 879 s

Q: For CCOc1ccccc1-c1nc(CN(c2ccccc2)S(=O)(=O)c2cccs2)c(C)o1, which RP-LC retention time is on record?
A: 1160 s

Q: For O=C(Cn1ccc2ccn(Cc3cccnc3)c2c1=O)NC1CCCC1, which RP-LC retention time is on record?
A: 605 s

Q: For O=C(NC1CCCCC1)C1CCCN(c2nc3ccsc3c(=O)n2Cc2ccc(F)cc2)C1 (stereo not given), which RP-LC retention time is on record?
A: 972 s

Q: Which RP-LC retention time does the source give for Cc1cc(N2CCN(C)CC2)nc(N2CCN(C(=O)c3ccc(C(C)(C)C)cc3)CC2)n1 here?
A: 586 s

Q: For CN(C)c1ncncc1N1CCC(C(=O)NC2CC2)CC1, which RP-LC retention time is on record?
A: 554 s

Q: Which RP-LC retention time does the source give for Cc1cnc(C)n1CC1CCN(C(=O)C2CCC2)C1 (stereo not given) here?
A: 565 s

Q: For COC1CCC12CCN(C(=O)c1conc1C)CC2 (stereo not given), which RP-LC retention time is on record?
A: 679 s

Q: For CCN(CC)CCNC(=O)c1ccc(-c2ccccc2)cc1, which RP-LC retention time is on record?
A: 587 s

Q: Which RP-LC retention time does the source give for O=C(Nc1ccc(C(F)(F)F)cc1)NC1CCN(c2ccc(F)cc2)C1=O (stereo not given) here?
A: 920 s

Q: Which RP-LC retention time does the source give for Cc1nc(-c2csc(S(=O)(=O)NCc3ccccc3Cl)c2)sc1C here?
A: 1030 s

Q: Which RP-LC retention time does the source give for COc1ccc(-c2noc(CC(=O)NCc3ccccc3)c2-c2ccc(OC)cc2)cc1 here?
A: 924 s

Q: For CCn1cc(-c2nc(C(=O)Nc3ccc(Cl)cc3)cs2)c2cccnc21, which RP-LC retention time is on record?
A: 1330 s

Q: With CC(C)C1c2nccn2CCCN1C(=O)c1ccc2c(c1)OCO2 (stereo not given) as the molecule, how does the RP-LC retention time read?
A: 603 s

Q: Which RP-LC retention time does the source give for CCOc1ccccc1NC(=O)C1(C)Oc2cccnc2NC1=O (stereo not given) here?
A: 776 s

Q: Which RP-LC retention time does the source give for CC1=C(c2cccc(Cl)c2)S(=O)(=O)N=C1N1CCCN(C(=O)c2ccncc2)CC1 here?
A: 677 s

Q: With COc1ccccc1-c1noc(C2CCCN2C(=O)c2ccc(C)s2)n1 (stereo not given) as the molecule, how does the RP-LC retention time read?
A: 996 s

Q: For COc1ccccc1-n1nnc(C(=O)N2CCc3ccccc32)c1-c1ccccn1, which RP-LC retention time is on record?
A: 836 s

Q: Which RP-LC retention time does the source give for Cc1cccc(NC(=O)C2CCN(S(=O)(=O)c3cc(C(=O)N(C)C)cs3)CC2)c1C here?
A: 790 s

Q: For COc1ccc(Cc2nc3nccc(-c4ccccn4)n3n2)cc1, which RP-LC retention time is on record?
A: 768 s

Q: Which RP-LC retention time does the source give for CCOc1ccc(OCC)c(N2C=C(C#N)S(=O)(=O)c3cc(F)ccc32)c1 here?
A: 1030 s

Q: Which RP-LC retention time does the source give for COc1ccc(NC(=O)N2c3ccccc3CC2c2nc(C(C)C)no2)cc1OC (stereo not given) here?
A: 935 s

Q: For CCOC(=O)c1sc(NC(=O)CSc2nccn2C)nc1-c1ccccc1, which RP-LC retention time is on record?
A: 678 s

Q: With COc1ccc(C2CC(=O)N(c3ccc(OC)c(OC)c3)C(=O)C2)cc1OC as the molecule, how does the RP-LC retention time read?
A: 910 s

Q: For CC(C)n1cnc2cc(CNC(=O)c3ccnn3C)ccc21, which RP-LC retention time is on record?
A: 582 s

Q: Which RP-LC retention time does the source give for Cc1ccc(NS(=O)(=O)c2ccc(-c3c(C)noc3C)cc2)c(Br)c1 here?
A: 1020 s

Q: For CC1(C)[C@H]2CC[C@](C)(C2)[C@H]1NS(=O)(=O)c1ccc(F)cc1, which RP-LC retention time is on record?
A: 1140 s

Q: Which RP-LC retention time does the source give for Cc1cccc(Sc2nccnc2SCC(=O)N2CCN(c3ccccn3)CC2)c1 here?
A: 721 s

Q: With O=C1NCCCCCCN(C(=O)Nc2ccccc2F)[C@H]2CCC[C@@H]12 as the molecule, how does the RP-LC retention time read?
A: 805 s

Q: Which RP-LC retention time does the source give for CCC(C)NC(=O)C1CCN(C(=O)c2cc3ccsc3n2Cc2cccc(OC)c2)CC1 (stereo not given) here?
A: 633 s

Q: For COc1ccc(-c2noc(Cc3nc(-c4cc(C)c(C)cc4C)cs3)n2)cc1, which RP-LC retention time is on record?
A: 1340 s

Q: Which RP-LC retention time does the source give for O=C(NCCCc1ccccc1)c1nnc(-c2ccc(S(=O)(=O)N3CCCC3)cc2)o1 here?
A: 971 s

Q: Which RP-LC retention time does the source give for COC(=O)c1c(C)[nH]c(C(=O)N2CCC(CC(=O)N3CCCCC3)CC2)c1C here?
A: 716 s

Q: Which RP-LC retention time does the source give for CC(=O)c1cccc(NC(=O)Cc2ccc3ccccc3c2)c1 here?
A: 858 s

Q: For Cc1cnc(NC(=O)c2ccc(N3CCCC3)nn2)s1, which RP-LC retention time is on record?
A: 636 s

Q: Which RP-LC retention time does the source give for CC(=O)N1c2ccc(S(=O)(=O)NCCOc3ccc(F)cc3)cc2CC1C (stereo not given) here?
A: 798 s

Q: For Cc1nc(-c2cn(C)c3ncccc23)sc1C(=O)Nc1cc(F)ccc1F, which RP-LC retention time is on record?
A: 944 s

Q: Which RP-LC retention time does the source give for CC1CCN(C(=O)C2=CN(c3ccccc3)c3ccccc3S2(=O)=O)CC1 here?
A: 919 s

Q: For COc1cccc(-n2c(N3CCC(C(=O)NC4CC4)CC3)nc3ccsc3c2=O)c1, which RP-LC retention time is on record?
A: 682 s

Q: With Cc1cn(-c2ccc(SCC(=O)NCc3ccc4c(c3)OCO4)nn2)cn1 as the molecule, how does the RP-LC retention time read?
A: 558 s

Q: Which RP-LC retention time does the source give for Cc1ccc(Cl)cc1NC(=O)Cn1cnc2c(sc3nc(-c4ccccc4)ccc32)c1=O here?
A: 1070 s

Q: With CCn1cc(C(=O)Nc2cc(C)ccc2C)c2cccnc21 as the molecule, how does the RP-LC retention time read?
A: 854 s

From the METLIN SMRT retention time set (Domingo-Almenara et al. 2019)
